Results from patent publication US7202280B2, “Methods for the treatment and prevention of pancreatitis and for induction of liver regeneration” (priority 2002, dated 2007).

System: syngenic and metallothionein-SSAT mice
Assay: Hepatic, pancreatic and renal polyamine concentration in syngenic and metallothionein-SSAT mice after analogue
Assay type: in vivo, mouse
Details: 24 h
Procedure: α-methylspermidine, Bis-α-methylspermine and α-methylspermine were administered in saline. […] The data are expressed as means ±S.D. For statistical analysis, the two-tailed Student's t test was used.

Structure (SMILES): CC(N)CCNCCCCN (stereo not drawn) [α-methylspermidine, 1-methylspermidine]
- hepatic N^1-Acetyl-spermidine (Sg mice, 50 mg/kg): 21.45 pmoles/mg tissue wet weight
- hepatic Spermidine (Sg mice, 50 mg/kg): 1018.24 pmoles/mg tissue wet weight
- hepatic Spermine (Sg mice, 50 mg/kg): 864.34 ± 90.79 ^++ pmoles/mg tissue wet weight
- hepatic α-Methyl-spermidine (Sg mice, 50 mg/kg): 394.01 pmoles/mg tissue wet weight
- pancreatic Putrescine (Sg mice, 50 mg/kg): 2.82 pmoles/mg tissue wet weight
- pancreatic Spermidine (Sg mice, 50 mg/kg): 6597.75 ± 1034.98 ^+ pmoles/mg tissue wet weight
- pancreatic Spermine (Sg mice, 50 mg/kg): 911.15 pmoles/mg tissue wet weight
- renal N^1-Acetylspermidine (Sg mice, 50 mg/kg): 36.67 pmoles/mg tissue wet weight
- renal Putrescine (Sg mice, 50 mg/kg): 45.91 pmoles/mg tissue wet weight
- renal Spermidine (Sg mice, 50 mg/kg): 315.36 ± 46.18 ^+ pmoles/mg tissue wet weight
- renal Spermine (Sg mice, 50 mg/kg): 856.32 ± 68.27 pmoles/mg tissue wet weight
- renal α-Methylspermidine (Sg mice, 50 mg/kg): 122.64 pmoles/mg tissue wet weight
- hepatic N^1-Acetyl-spermidine (Sg mice, 100 mg/kg): 12.90 pmoles/mg tissue wet weight
- hepatic Putrescine (Sg mice, 100 mg/kg): 15.36 pmoles/mg tissue wet weight
- hepatic Spermidine (Sg mice, 100 mg/kg): 729.82 pmoles/mg tissue wet weight
- hepatic Spermine (Sg mice, 100 mg/kg): 892.64 ± 79.24 ^++ pmoles/mg tissue wet weight
- hepatic α-Methyl-spermidine (Sg mice, 100 mg/kg): 461.44 pmoles/mg tissue wet weight
- pancreatic N^1-Acetyl-spermidine (Sg mice, 100 mg/kg): 66.33 pmoles/mg tissue wet weight
- pancreatic Spermidine (Sg mice, 100 mg/kg): 6089.81 ± 1039.94 ^++ pmoles/mg tissue wet weight
- pancreatic Spermine (Sg mice, 100 mg/kg): 815.33 pmoles/mg tissue wet weight
- renal N^1-Acetylspermidine (Sg mice, 100 mg/kg): 38.89 pmoles/mg tissue wet weight
- renal Putrescine (Sg mice, 100 mg/kg): 68.97 pmoles/mg tissue wet weight
- renal Spermidine (Sg mice, 100 mg/kg): 231.78 ± 25.15 pmoles/mg tissue wet weight
- renal Spermine (Sg mice, 100 mg/kg): 686.21 ± 75.94 ^+ pmoles/mg tissue wet weight
- renal α-Methylspermidine (Sg mice, 100 mg/kg): 146.37 pmoles/mg tissue wet weight
- hepatic N^1-Acetyl-spermidine (Sg mice, 150 mg/kg): 23.35 pmoles/mg tissue wet weight
- hepatic Spermidine (Sg mice, 150 mg/kg): 723.14 pmoles/mg tissue wet weight
- hepatic Spermine (Sg mice, 150 mg/kg): 739.53 ± 170.40 ^+ pmoles/mg tissue wet weight
- hepatic α-Methyl-spermidine (Sg mice, 150 mg/kg): 504.41 pmoles/mg tissue wet weight
- pancreatic Putrescine (Sg mice, 150 mg/kg): 1.66 pmoles/mg tissue wet weight
- pancreatic Spermidine (Sg mice, 150 mg/kg): 6345.88 ± 1026.88 ^++ pmoles/mg tissue wet weight
- pancreatic Spermine (Sg mice, 150 mg/kg): 833.73 pmoles/mg tissue wet weight
- renal N^1-Acetylspermidine (Sg mice, 150 mg/kg): 24.61 pmoles/mg tissue wet weight
- renal Putrescine (Sg mice, 150 mg/kg): 65.28 pmoles/mg tissue wet weight
- renal Spermidine (Sg mice, 150 mg/kg): 240.59 ± 28.71 pmoles/mg tissue wet weight
- renal Spermine (Sg mice, 150 mg/kg): 635.17 ± 42.35 pmoles/mg tissue wet weight
- renal α-Methylspermidine (Sg mice, 150 mg/kg): 175.49 pmoles/mg tissue wet weight
- hepatic N^1-Acetyl-spermidine (Sg mice, 250 mg/kg): 18.97 pmoles/mg tissue wet weight
- hepatic Putrescine (Sg mice, 250 mg/kg): 21.87 pmoles/mg tissue wet weight
- hepatic Spermidine (Sg mice, 250 mg/kg): 593.49 pmoles/mg tissue wet weight
- hepatic Spermine (Sg mice, 250 mg/kg): 854.77 ± 108.73 ^++ pmoles/mg tissue wet weight
- hepatic α-Methyl-spermidine (Sg mice, 250 mg/kg): 763.57 pmoles/mg tissue wet weight
- pancreatic Putrescine (Sg mice, 250 mg/kg): 158.82 pmoles/mg tissue wet weight
- pancreatic Spermidine (Sg mice, 250 mg/kg): 4773.64 ± 838.69 ^++ pmoles/mg tissue wet weight
- pancreatic Spermine (Sg mice, 250 mg/kg): 762.743 pmoles/mg tissue wet weight
- pancreatic α-Methyl-spermidine (Sg mice, 250 mg/kg): 1363.02 pmoles/mg tissue wet weight
- renal N^1-Acetylspermidine (Sg mice, 250 mg/kg): 31.10 pmoles/mg tissue wet weight
- renal Putrescine (Sg mice, 250 mg/kg): 41.84 pmoles/mg tissue wet weight
- renal Spermidine (Sg mice, 250 mg/kg): 225.57 ± 29.21 ^+ pmoles/mg tissue wet weight
- renal Spermine (Sg mice, 250 mg/kg): 518.89 ± 36.68 pmoles/mg tissue wet weight
- renal α-Methylspermidine (Sg mice, 250 mg/kg): 288.30 pmoles/mg tissue wet weight
- hepatic N^1-Acetyl-spermidine (Sg mice, 375 mg/kg): 31.64 pmoles/mg tissue wet weight
- hepatic Putrescine (Sg mice, 375 mg/kg): 29.37 pmoles/mg tissue wet weight
- hepatic Spermidine (Sg mice, 375 mg/kg): 370.29 pmoles/mg tissue wet weight
- hepatic Spermine (Sg mice, 375 mg/kg): 644.88 ± 183.36 ^+ pmoles/mg tissue wet weight
- hepatic α-Methyl-spermidine (Sg mice, 375 mg/kg): 1095.59 pmoles/mg tissue wet weight
- pancreatic N^1-Acetyl-spermidine (Sg mice, 375 mg/kg): 14.02 pmoles/mg tissue wet weight
- pancreatic Putrescine (Sg mice, 375 mg/kg): 726.66 pmoles/mg tissue wet weight
- pancreatic Spermidine (Sg mice, 375 mg/kg): 4073.3 ± 670.46^++ pmoles/mg tissue wet weight
- pancreatic Spermine (Sg mice, 375 mg/kg): 740.93 pmoles/mg tissue wet weight
- pancreatic α-Methyl-spermidine (Sg mice, 375 mg/kg): 1319.14 pmoles/mg tissue wet weight
- renal N^1-Acetylspermidine (Sg mice, 375 mg/kg): 27.40 pmoles/mg tissue wet weight
- renal Putrescine (Sg mice, 375 mg/kg): 58.59 pmoles/mg tissue wet weight
- renal Spermidine (Sg mice, 375 mg/kg): 189.46 ± 0.98 pmoles/mg tissue wet weight
- renal Spermine (Sg mice, 375 mg/kg): 454.49 ± 64.44 ^+ pmoles/mg tissue wet weight
- renal α-Methylspermidine (Sg mice, 375 mg/kg): 477.31 pmoles/mg tissue wet weight
- hepatic N^1-Acetyl-spermidine (Sg mice, 500 mg/kg): 133.00 pmoles/mg tissue wet weight
- hepatic Putrescine (Sg mice, 500 mg/kg): 119.33 pmoles/mg tissue wet weight
- hepatic Spermidine (Sg mice, 500 mg/kg): 273.13 pmoles/mg tissue wet weight
- hepatic Spermine (Sg mice, 500 mg/kg): 666.13 ± 188.21 pmoles/mg tissue wet weight
- hepatic α-Methyl-spermidine (Sg mice, 500 mg/kg): 1801.46 pmoles/mg tissue wet weight
- pancreatic N^1-Acetyl-spermidine (Sg mice, 500 mg/kg): 10.62 pmoles/mg tissue wet weight
- pancreatic Putrescine (Sg mice, 500 mg/kg): 812.54 pmoles/mg tissue wet weight
- pancreatic Spermidine (Sg mice, 500 mg/kg): 3669.36 ± 1235.66 pmoles/mg tissue wet weight
- pancreatic Spermine (Sg mice, 500 mg/kg): 652.17 pmoles/mg tissue wet weight
- pancreatic α-Methyl-spermidine (Sg mice, 500 mg/kg): 1273.3 pmoles/mg tissue wet weight
- renal N^1-Acetylspermidine (Sg mice, 500 mg/kg): 46.34 pmoles/mg tissue wet weight
- renal Putrescine (Sg mice, 500 mg/kg): 789.63 pmoles/mg tissue wet weight
- renal Spermidine (Sg mice, 500 mg/kg): 181.32 ± 28.81 pmoles/mg tissue wet weight
- renal Spermine (Sg mice, 500 mg/kg): 458.07 ± 107.68 pmoles/mg tissue wet weight
- renal α-Methylspermidine (Sg mice, 500 mg/kg): 1078.16 pmoles/mg tissue wet weight
- hepatic N^1-Acetyl-spermidine (Tg mice, 50 mg/kg): 245.16 pmoles/mg tissue wet weight
- hepatic Putrescine (Tg mice, 50 mg/kg): 1055.38 pmoles/mg tissue wet weight
- hepatic Spermidine (Tg mice, 50 mg/kg): 329.57 pmoles/mg tissue wet weight
- hepatic Spermine (Tg mice, 50 mg/kg): 103.26 ± 188.21 pmoles/mg tissue wet weight
- hepatic α-Methyl-spermidine (Tg mice, 50 mg/kg): 582.62 pmoles/mg tissue wet weight
- pancreatic N^1-Acetyl-spermidine (Tg mice, 50 mg/kg): 204.43 pmoles/mg tissue wet weight
- pancreatic Putrescine (Tg mice, 50 mg/kg): 4968.25 pmoles/mg tissue wet weight
- pancreatic Spermidine (Tg mice, 50 mg/kg): 1316.94 ± 248.44 pmoles/mg tissue wet weight
- pancreatic Spermine (Tg mice, 50 mg/kg): 224.17 pmoles/mg tissue wet weight
- pancreatic α-Methyl-spermidine (Tg mice, 50 mg/kg): 627.87 pmoles/mg tissue wet weight
- renal N^1-Acetylspermidine (Tg mice, 50 mg/kg): 49.14 pmoles/mg tissue wet weight
